# From US20160355530A1, “HEPATITIS C INHIBITORS AND USES THEREOF” (AbbVie Inc., priority 2010, published 2016)
# Read-outs that look alike come from different tables or passages of the source.
# Legend:
# [1] = target: T1, HCV NS5B polymerase 1a-H77 (Hepatitis C virus genotype 1a, UniProt P27958); test: biochemical; set-up: species or system HCV genotype 1a; conditions: enzyme, strain 1a H77; read-out: HCV Polymerase Strain 1a H77 IC50
# T1 construct: six-histidine tag; made in house; host or cells: E. coli
# T1 sequence (P27958 2421-2990): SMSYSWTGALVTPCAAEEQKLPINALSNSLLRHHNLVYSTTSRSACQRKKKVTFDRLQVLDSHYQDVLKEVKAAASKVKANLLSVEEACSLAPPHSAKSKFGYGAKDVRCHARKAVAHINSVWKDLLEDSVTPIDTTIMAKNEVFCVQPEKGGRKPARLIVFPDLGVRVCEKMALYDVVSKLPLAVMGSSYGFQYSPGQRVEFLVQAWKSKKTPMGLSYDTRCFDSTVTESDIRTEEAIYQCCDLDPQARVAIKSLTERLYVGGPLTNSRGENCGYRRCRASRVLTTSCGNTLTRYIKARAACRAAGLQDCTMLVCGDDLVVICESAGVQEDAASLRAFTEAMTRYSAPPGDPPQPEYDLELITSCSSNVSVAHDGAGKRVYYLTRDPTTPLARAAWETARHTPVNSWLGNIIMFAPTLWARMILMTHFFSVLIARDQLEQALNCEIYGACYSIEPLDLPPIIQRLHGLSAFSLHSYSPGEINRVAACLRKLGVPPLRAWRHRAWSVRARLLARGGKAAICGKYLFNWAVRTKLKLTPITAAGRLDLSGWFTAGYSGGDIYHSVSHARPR
# In short: (§1)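 E. coli-expressed NS5B (residues 1-570, His-tagged) transcribed a 2.1 kb HCV 1b negative-strand 3′-end RNA template (5 nM) with 20 μM CTP, 20 μM ATP and 0.284 μM [3H]UTP for 3 h at 30° C. Spermine-precipitated RNA was filter-captured and counted by scintillation; IC50 from nonlinear regression.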
# [2] = target: T2, HCV NS5B polymerase 1a-H77-C316Y (Hepatitis C virus genotype 1a, UniProt P27958, C2736Y); test: biochemical; set-up: species or system HCV genotype 1a
# T2 construct: six-histidine tag; made in house; host or cells: E. coli
# T2 sequence (P27958 2421-2990 C2736Y): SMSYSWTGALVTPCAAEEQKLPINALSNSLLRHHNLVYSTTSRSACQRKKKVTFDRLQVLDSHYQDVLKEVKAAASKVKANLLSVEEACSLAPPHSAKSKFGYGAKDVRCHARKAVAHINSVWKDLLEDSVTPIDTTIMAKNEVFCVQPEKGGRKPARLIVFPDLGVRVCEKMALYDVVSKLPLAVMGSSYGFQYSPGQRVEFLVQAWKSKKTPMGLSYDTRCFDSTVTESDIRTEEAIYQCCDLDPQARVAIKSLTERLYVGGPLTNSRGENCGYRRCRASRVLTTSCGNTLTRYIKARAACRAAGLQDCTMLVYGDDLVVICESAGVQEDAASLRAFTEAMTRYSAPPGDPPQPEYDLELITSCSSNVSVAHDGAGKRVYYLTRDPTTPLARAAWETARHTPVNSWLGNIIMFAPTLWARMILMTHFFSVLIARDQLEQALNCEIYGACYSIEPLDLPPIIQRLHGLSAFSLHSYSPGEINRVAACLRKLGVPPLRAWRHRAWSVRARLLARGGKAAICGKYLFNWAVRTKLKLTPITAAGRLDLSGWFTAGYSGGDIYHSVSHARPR
# In short: as §1
# [3] = system: HCV NS5B polymerase 1a-H77-C316Y; test: biochemical; set-up: species or system HCV genotype 1a; conditions: ratio of enzyme IC50s, 1a H77-C316Y / 1a H77
# In short: as §1
# [4] = target: T3, HCV NS5B polymerase 1b BK strain (Hepatitis C virus genotype 1b, UniProt P26663); test: HCV NS5B polymerase enzymatic inhibition assay, strain 1b BK; format: biochemical; conditions: enzyme, strain 1b BK; read-out: HCV Polymerase Strain 1b BK IC50
# T3 construct: six-histidine tag; made in house; host or cells: E. coli
# T3 sequence (P26663 2420-2989): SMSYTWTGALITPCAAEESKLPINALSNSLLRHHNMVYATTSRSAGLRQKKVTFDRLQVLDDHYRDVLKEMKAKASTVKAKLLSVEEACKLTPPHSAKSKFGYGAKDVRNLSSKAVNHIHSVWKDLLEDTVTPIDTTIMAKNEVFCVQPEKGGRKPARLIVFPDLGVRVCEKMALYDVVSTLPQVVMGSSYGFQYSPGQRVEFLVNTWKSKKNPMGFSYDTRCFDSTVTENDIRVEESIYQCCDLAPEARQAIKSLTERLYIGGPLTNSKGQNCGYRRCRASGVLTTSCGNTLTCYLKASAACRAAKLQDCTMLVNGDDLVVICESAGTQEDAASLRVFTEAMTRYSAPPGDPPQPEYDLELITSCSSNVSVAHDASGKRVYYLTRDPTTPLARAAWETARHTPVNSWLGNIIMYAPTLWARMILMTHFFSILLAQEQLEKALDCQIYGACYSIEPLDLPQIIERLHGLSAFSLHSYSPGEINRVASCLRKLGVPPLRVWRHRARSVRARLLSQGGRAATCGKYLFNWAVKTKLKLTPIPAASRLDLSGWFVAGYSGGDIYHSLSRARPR
# In short: as §1
# [5] = system: HCV 1a-H77 subgenomic replicon; test: microbe, parasite or virus in culture; format: cell-based, HCV genotype 1a; conditions: Hepatitis C virus, stable replicon
# [6] = system: HCV 1b-BB7 subgenomic replicon; test: microbe, parasite or virus in culture; format: cell-based, HCV genotype 1b; conditions: Hepatitis C virus, stable replicon
# [7] = system: chimeric replicon with 2a-J6CF-derived NS5B; test: microbe, parasite or virus in culture; format: cell-based, HCV genotype 2a; conditions: Hepatitis C virus, read-out: 2a chimera 5% FBS EC50
# [8] = system: chimeric replicon with genotype 2b NS5B; test: microbe, parasite or virus in culture; format: cell-based, HCV genotype 2b; conditions: Hepatitis C virus, read-out: 2b chimera 5% FBS EC50
# [9] = system: chimeric replicon with genotype 3a NS5B; test: microbe, parasite or virus in culture; format: cell-based, HCV genotype 3a; conditions: Hepatitis C virus, read-out: 3a chimera 5% FBS EC50
# [10] = system: chimeric replicon with genotype 4a NS5B; test: microbe, parasite or virus in culture; format: cell-based, HCV genotype 4a; conditions: Hepatitis C virus, read-out: 4a chimera 5% FBS EC50
# [11] = system: HCV 1a-H77 transient subgenomic replicon in Huh-7 derived cell line; test: microbe, parasite or virus in culture; format: cell-based, HCV genotype 1a; conditions: Hepatitis C virus, Huh-7; transient replicon, 5% FBS; read-out: Transient Replicon 1a H77 5% FBS EC50
# In short: (§2)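 Transient format: T7-transcribed replicon RNA lacking Neo, electroporated into Huh-7-derived cells (5×10^3/well), input RNA checked by luciferase at 4 h. Three-fold compound dilution series, 0.5% DMSO, 4 days at 37° C; EC50 from luciferase signal in lysed cells.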
# [12] = system: HCV 1a-H77-C316Y transient subgenomic replicon in Huh-7 derived cell line; test: microbe, parasite or virus in culture; format: cell-based, HCV genotype 1a; conditions: for EC50: Hepatitis C virus, Huh-7, read-out: Transient Replicon 1a H77-C316Y 5% FBS EC50; for Transient Replicon Fold Resistance C316Y/1a: ratio of transient replicon EC50s, C316Y / 1a H77
# In short: as §2
# [13] = 5% FBS, absence of human plasma, read-out: Stable Replicon 1a H77 5% FBS EC50
# [14] = strain 1a H77, 5% FBS + 40% human plasma, read-out: 1a H77 5% FBS + 40% Human Plasma EC50
# [15] = strain 1a H77, 5% FBS, no human plasma, read-out: 1a H77 5% FBS EC50
# [16] = strain 1a H77, 5% FBS, read-out: 1a H77 5% FBS EC50
# [17] = strain 1b BB7, 5% FBS + 40% human plasma, read-out: 1b BB7 5% FBS + 40% Human Plasma EC50
# [18] = strain 1b BB7, 5% FBS, no human plasma, read-out: 1b BB7 5% FBS EC50
# [19] = strain 1b BB7, 5% FBS, read-out: 1b BB7 5% FBS EC50
SMILES,IC50 [1],IC50 [2],C316Y/1a Fold Resistance [3],IC50 [4],"EC50 [5, 13]","EC50 [5, 14]","EC50 [5, 15]","EC50 [5, 16]","EC50 [6, 17]","EC50 [6, 18]","EC50 [6, 19]",EC50 [7],EC50 [8],EC50 [9],EC50 [10],EC50 [11],EC50 [12],Transient Replicon Fold Resistance C316Y/1a [12]
"COc1ccc(CN(c2cc3oc(-c4ccc(F)cc4)c(C4=NOCN4)c3cc2C2CC2)S(C)(=O)=O)cc1 [Example 145, N-[5-cyclopropyl-3-(4,5-dihydro-1,2,4-oxadiazol-3-yl)-2-(4-fluorophenyl)-1-benzofuran-6-yl]-N-(4-methoxybenzyl)methanesulfonamide]",6 nM,2000 nM,333 fold,35 nM,134 nM,1000 nM,134 nM,134 nM,1000 nM,80 nM,80 nM,372 nM,836 nM,163 nM,> 1000 nM,100 nM,1000 nM,10 fold
"CC(C)(O)C(O)CCN(c1cc2oc(-c3ccc(F)cc3)c(C3=NOCN3)c2cc1C1CC1)S(C)(=O)=O (stereo not drawn) [Example 146, N-[5-cyclopropyl-3-(4,5-dihydro-1,2,4-oxadiazol-3-yl)-2-(4-fluorophenyl)-1-benzofuran-6-yl]-N-(3,4-dihydroxy-4-methylpentyl)methanesulfonamide]",4.9 nM,45 nM,9 fold,25 nM,12.6 nM,1660 nM,12.6 nM,12.6 nM,2710 nM,17.9 nM,17.9 nM,179 nM,169 nM,17 nM,277 nM,11.2 nM,237 nM,21 fold
"CS(=O)(=O)N(CCCCCO)c1cc2oc(-c3ccc(F)cc3)c(C3=NOCN3)c2cc1C1CC1 [Example 147, N-[5-cyclopropyl-3-(4,5-dihydro-1,2,4-oxadiazol-3-yl)-2-(4-fluorophenyl)-1-benzofuran-6-yl]-N-(5-hydroxypentyl)methanesulfonamide]",3.5 nM,49 nM,14 fold,9 nM,8.9 nM,1710 nM,8.9 nM,8.9 nM,1830 nM,9.8 nM,9.8 nM,84.8 nM,62 nM,10.3 nM,65.9 nM,9.7 nM,77.8 nM,8 fold
"CS(=O)(=O)CCCCN(c1cc2oc(-c3ccc(F)cc3)c(C3=NOCN3)c2cc1C1CC1)S(C)(=O)=O [Example 148, N-[5-cyclopropyl-3-(4,5-dihydro-1,2,4-oxadiazol-3-yl)-2-(4-fluorophenyl)-1-benzofuran-6-yl]-N-[4-(methylsulfonyl)butyl]methanesulfonamide]",3.9 nM,30 nM,8 fold,6 nM,4.1 nM,1290 nM,4.1 nM,4.1 nM,688 nM,4 nM,4 nM,45.8 nM,32 nM,8.2 nM,39.7 nM,5.2 nM,109 nM,21 fold
"CS(=O)(=O)N(CCC1CCS(=O)(=O)C1)c1cc2oc(-c3ccc(F)cc3)c(C3=NOCN3)c2cc1C1CC1 (stereo not drawn) [Example 149, N-[5-cyclopropyl-3-(4,5-dihydro-1,2,4-oxadiazol-3-yl)-2-(4-fluorophenyl)-1-benzofuran-6-yl]-N-[2-(1,1-dioxidotetrahydrothiophen-3-yl)ethyl]methanesulfonamide]",3.5 nM,41 nM,12 fold,9 nM,8.8 nM,1020 nM,8.8 nM,8.8 nM,643 nM,4 nM,4 nM,54 nM,34 nM,7 nM,21 nM,7.3 nM,124 nM,17 fold
"CC(C)CCN(c1cc2oc(-c3ccc(F)cc3)c(C3=NOCN3)c2cc1C1CC1)S(C)(=O)=O [Example 156, N-[5-cyclopropyl-3-(4,5-dihydro-1,2,4-oxadiazol-3-yl)-2-(4-fluorophenyl)-1-benzofuran-6-yl]-N-(3-methylbutyl)methanesulfonamide]",6.3 nM,34 nM,5 fold,27 nM,41.8 nM,2300 nM,41.8 nM,41.8 nM,2980 nM,70.9 nM,70.9 nM,718 nM,893 nM,65.1 nM,623 nM,29.1 nM,370 nM,13 fold
"CS(=O)(=O)N(CCCC(=O)O)c1cc2oc(-c3ccc(F)cc3)c(C3=NOCN3)c2cc1C1CC1 [Example 157, 4-{[5-cyclopropyl-3-(4,5-dihydro-1,2,4-oxadiazol-3-yl)-2-(4-fluorophenyl)-1-benzofuran-6-yl](methylsulfonyl)amino}butanoic acid]",5 nM,54 nM,11 fold,16 nM,109 nM,2790 nM,109 nM,109 nM,2460 nM,94.2 nM,94.2 nM,1000 nM,1000 nM,108 nM,> 1000 nM,111 nM,6890 nM,62 fold
"Cc1cnc(-c2c(-c3ccc(F)cc3)oc3cc(N(CCC(C)C)S(C)(=O)=O)c(C4CC4)cc23)[nH]1 [Example 172, N-[5-cyclopropyl-2-(4-fluorophenyl)-3-(5-methyl-1H-imidazol-2-yl)-1-benzofuran-6-yl]-N-(3-methylbutyl)methanesulfonamide]",13.3 nM,87 nM,7 fold,179 nM,67.4 nM,1220 nM,67.4 nM,67.4 nM,1130 nM,111 nM,111 nM,1000 nM,1000 nM,233 nM,> 1000 nM,40.4 nM,103 nM,3 fold
"CS(=O)(=O)Nc1cc2oc(-c3ccc(F)cc3)c(C3=NOCN3)c2cc1C1CC1 [Example 173, N-[5-cyclopropyl-3-(4,5-dihydro-1,2,4-oxadiazol-3-yl)-2-(4-fluorophenyl)-1-benzofuran-6-yl]methanesulfonamide]",7.1 nM,1400 nM,198 fold,86 nM,809 nM,9720 nM,809 nM,809 nM,5060 nM,301 nM,301 nM,1000 nM,1000 nM,146 nM,> 1000 nM,1000 nM,10000 nM,10 fold
